Patent US20020137929A1, “1 - (3-heterocyclylphenyl) isothiourea, -isourea, -guanidine and -amidine herbicidal agents” (Intellectual Property Department, BASF Aktiengesellschaft, priority 1998, published 2002)

Tests used:
SETVI (Foxtail, Green) = test: Postemergence herbicidal evaluation; format: in vivo, Setaria viridis; conditions: for Herbicidal rating SETVI: postemergence
Procedure, shortened: (§1)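 Two-week seedlings sprayed postemergence at 40 psi; formulation: 1:1 acetone/water, 0.5% TWEEN 20; application ≈0.0156–0.500 kg/ha. Greenhouse grow-out, then 0–9 visual scoring at 4–5 weeks.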

ORYSAT (Rice, Tebonnet) = test: Postemergence herbicidal evaluation; format: in vivo, Oryza sativa, (L.) Tebonnet; conditions: for Herbicidal rating ORYSAT: postemergence
Procedure, shortened: as §1

ZEAMX (Corn, Field) = test: Postemergence herbicidal evaluation; format: in vivo, Zea mays; conditions: for Herbicidal rating ZEAMX: postemergence
Procedure, shortened: as §1

[1] = test system: ECHORC (Watergrass (Calif.)); test: Preemergence weed control under flooded paddy conditions; format: in vivo, Echinochloa oryzoides; conditions: rated 3-4 weeks after treatment
Procedure, shortened: (§2)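 Visual injury scored 0-9 against control three to four weeks post-treatment, greenhouse-grown. Application: acetone/water (50/50) solutions dosed directly into flood water (1.5-3 cm over silt loam, planted top 0.5 cm), roughly 0.0313 to 0.500 kg/ha active ingredient.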

CYPIR (Rice Flatsedge) [2] = test: as above; format: in vivo, Cyperus iria; conditions: rated 3-4 weeks after treatment
Procedure, shortened: as §2

CYPSE (Flatsedge) [3] = test: as above; format: in vivo, Cyperus serotinus; conditions: rated 3-4 weeks after treatment
Procedure, shortened: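 Values are visual 0-9 scores against a control for a preemergence application into paddy flood water at about 0.0313 to 0.500 kg/ha. Greenhouse duration was three to four weeks.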

[4] = test system: ECHORC (Watergrass (Calif.)); test: Postemergence weed control under flooded paddy conditions; format: in vivo, Echinochloa oryzoides; conditions: postemergence weeds
Procedure, shortened: (§3)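 Flood-water application, about 0.0313–0.500 kg/ha a.i. in aqueous/acetone 50/50 v/v; water depth 1.5–3 cm throughout. Weeds 3–5 cm, rice 1.5–2.5 leaf. Greenhouse; 0–9 visual rating vs control at 3–4 wk.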

CYPIR (Rice Flatsedge) [5] = test: as above; format: in vivo, Cyperus iria; conditions: postemergence weeds
Procedure, shortened: as §3

CYPSE (Flatsedge) [6] = test: as above; format: in vivo, Cyperus serotinus; conditions: postemergence weeds
Procedure, shortened: as §3

[7] = test system: SAGPY (Arrowhead (Pygmaea)); test: as above; format: in vivo, Sagittaria pygmaea; conditions: postemergence weeds
Procedure, shortened: as §3

[8] = rate 0.0313 kg/ha, 3-4 weeks after treatment
[9] = rate 0.0625 kg/ha, 3-4 weeks after treatment
[10] = rate 0.1250 kg/ha, 3-4 weeks after treatment
[11] = rate 0.2500 kg/ha, 3-4 weeks after treatment
[12] = Rate 0.0313 kg/ha, rated 3 to 4 weeks after treatment
[13] = Rate 0.0625 kg/ha, rated 3 to 4 weeks after treatment
[14] = Rate 0.1250 kg/ha, rated 3 to 4 weeks after treatment
[15] = Rate 0.2500 kg/ha, rated 3 to 4 weeks after treatment
[16] = Rate 0.5000 kg/ha, rated 3 to 4 weeks after treatment

CCOC(=O)CN1C(=O)C(CC(=O)OC(C)C)SC1=Nc1cc(-n2c(=O)cc(C(F)(F)F)n(C)c2=O)c(F)cc1Cl (stereo not drawn) [Compound 55, 2-{{2-Chloro-5-[3,6-dihydro-3-methyl-2,6-dioxo-4-(trifluoromethyl)-1(2H)-pyrimidinyl]-4-fluoro-phenyl}imino}-4-oxo-3,5-thiazolidinediacetic acid, 3-ethyl isopropyl ester]
7.5: Postemergence herbicidal rating ZEAMX (ZEAMX (Corn, Field); Rate 0.0158 kg/ha)
8.7: Postemergence herbicidal rating ZEAMX (ZEAMX (Corn, Field); Rate 0.0625 kg/ha)
7.0: Herbicidal rating ECHORC ([1]; 0.0313 kg/ha) | Herbicidal rating ECHORC ([1]; 0.0625 kg/ha) | Herbicidal rating ECHORC ([1]; 0.1250 kg/ha) | Herbicidal rating ECHORC ([1]; 0.2500 kg/ha) | Herbicidal rating ECHORC [4, 8] | Herbicidal rating ECHORC [4, 9] | Herbicidal rating ECHORC [4, 10] | Herbicidal rating ECHORC [4, 11]
4.2: Postemergence herbicidal rating ORYSAT (ORYSAT (Rice, Tebonnet); Rate 0.0625 kg/ha)
6.5: Postemergence herbicidal rating ORYSAT (ORYSAT (Rice, Tebonnet); Rate 0.2500 kg/ha)
0.0: Herbicidal rating CYPSE (CYPSE (Flatsedge) [3]; 0.0313 kg/ha) | Herbicidal rating CYPSE (CYPSE (Flatsedge) [3]; 0.0625 kg/ha) | Herbicidal rating CYPSE (CYPSE (Flatsedge) [3]; 0.1250 kg/ha) | Herbicidal rating CYPSE (CYPSE (Flatsedge) [3]; 0.2500 kg/ha) | Herbicidal rating CYPSE (CYPSE (Flatsedge) [6]; [8]) | Herbicidal rating CYPSE (CYPSE (Flatsedge) [6]; [9]) | Herbicidal rating CYPSE (CYPSE (Flatsedge) [6]; [10]) | Herbicidal rating CYPSE (CYPSE (Flatsedge) [6]; [11]) | Herbicidal rating SAGPY [7, 8] | Herbicidal rating SAGPY [7, 9] | Herbicidal rating SAGPY [7, 10] | Herbicidal rating SAGPY [7, 11]
9.0: Postemergence herbicidal rating SETVI (SETVI (Foxtail, Green); Rate 0.0158 kg/ha) | Postemergence herbicidal rating SETVI (SETVI (Foxtail, Green); Rate 0.0313 kg/ha) | Postemergence herbicidal rating SETVI (SETVI (Foxtail, Green); Rate 0.0625 kg/ha) | Postemergence herbicidal rating SETVI (SETVI (Foxtail, Green); Rate 0.1250 kg/ha) | Postemergence herbicidal rating SETVI (SETVI (Foxtail, Green); Rate 0.2500 kg/ha) | Postemergence herbicidal rating ZEAMX (ZEAMX (Corn, Field); Rate 0.2500 kg/ha) | Herbicidal rating CYPIR (CYPIR (Rice Flatsedge) [2]; 0.0313 kg/ha) | Herbicidal rating CYPIR (CYPIR (Rice Flatsedge) [2]; 0.0625 kg/ha) | Herbicidal rating CYPIR (CYPIR (Rice Flatsedge) [2]; 0.1250 kg/ha) | Herbicidal rating CYPIR (CYPIR (Rice Flatsedge) [2]; 0.2500 kg/ha) | Herbicidal rating CYPIR (CYPIR (Rice Flatsedge) [5]; [8]) | Herbicidal rating CYPIR (CYPIR (Rice Flatsedge) [5]; [9]) | Herbicidal rating CYPIR (CYPIR (Rice Flatsedge) [5]; [10]) | Herbicidal rating CYPIR (CYPIR (Rice Flatsedge) [5]; [11])
2.5: Postemergence herbicidal rating ORYSAT (ORYSAT (Rice, Tebonnet); Rate 0.0158 kg/ha)
8.3: Postemergence herbicidal rating ZEAMX (ZEAMX (Corn, Field); Rate 0.0313 kg/ha)
8.8: Postemergence herbicidal rating ZEAMX (ZEAMX (Corn, Field); Rate 0.1250 kg/ha)
3.5: Postemergence herbicidal rating ORYSAT (ORYSAT (Rice, Tebonnet); Rate 0.0313 kg/ha)
5.5: Postemergence herbicidal rating ORYSAT (ORYSAT (Rice, Tebonnet); Rate 0.1250 kg/ha)

C=CCN1C(=O)C(CC(=O)NS(=O)(=O)c2ccccc2)SC1=Nc1cc(-n2c(=O)cc(C(F)(F)F)n(C)c2=O)c(F)cc1Cl (stereo not drawn) [Compound 101, 3-Allyl-2-{{2-chloro-5-[3,6-dihydro-3-methyl-2,6-dioxo-4-(trifluoromethyl)-1(2H)-pyrimidinyl]-4-fluorophenyl}imino}-4-oxo-N-(phenylsulfonyl)-5-thiazolidineacetamide]
1.0: Herbicidal rating SETVI (SETVI (Foxtail, Green); rate 0.0313 kg/ha)
2.0: Herbicidal rating SETVI (SETVI (Foxtail, Green); rate 0.0156 kg/ha) | Herbicidal rating SAGPY [7, 15]
0.0: ECHORC herbicidal effect rating ([1]; 0.0313 kg/ha) | ECHORC herbicidal effect rating ([1]; 0.0625 kg/ha) | ECHORC herbicidal effect rating ([1]; 0.1250 kg/ha) | ECHORC herbicidal effect rating ([1]; 0.2500 kg/ha) | ECHORC herbicidal effect rating ([1]; 0.5000 kg/ha) | CYPIR herbicidal effect rating (CYPIR (Rice Flatsedge) [2]; 0.0313 kg/ha) | CYPIR herbicidal effect rating (CYPIR (Rice Flatsedge) [2]; 0.0625 kg/ha) | CYPIR herbicidal effect rating (CYPIR (Rice Flatsedge) [2]; 0.1250 kg/ha) | CYPSE herbicidal effect rating (CYPSE (Flatsedge) [3]; 0.0313 kg/ha) | CYPSE herbicidal effect rating (CYPSE (Flatsedge) [3]; 0.0625 kg/ha) | CYPSE herbicidal effect rating (CYPSE (Flatsedge) [3]; 0.1250 kg/ha) | CYPSE herbicidal effect rating (CYPSE (Flatsedge) [3]; 0.2500 kg/ha) | CYPSE herbicidal effect rating (CYPSE (Flatsedge) [3]; 0.5000 kg/ha) | Herbicidal rating ECHORC [4, 12] | Herbicidal rating ECHORC [4, 13] | Herbicidal rating ECHORC [4, 14] | Herbicidal rating ECHORC [4, 15] | Herbicidal rating ECHORC [4, 16] | Herbicidal rating CYPIR (CYPIR (Rice Flatsedge) [5]; [12]) | Herbicidal rating CYPIR (CYPIR (Rice Flatsedge) [5]; [13]) | Herbicidal rating CYPIR (CYPIR (Rice Flatsedge) [5]; [14]) | Herbicidal rating CYPSE (CYPSE (Flatsedge) [6]; [12]) | Herbicidal rating CYPSE (CYPSE (Flatsedge) [6]; [13]) | Herbicidal rating CYPSE (CYPSE (Flatsedge) [6]; [14]) | Herbicidal rating CYPSE (CYPSE (Flatsedge) [6]; [15]) | Herbicidal rating CYPSE (CYPSE (Flatsedge) [6]; [16]) | Herbicidal rating SAGPY [7, 12] | Herbicidal rating SAGPY [7, 13] | Herbicidal rating SAGPY [7, 14]
3.0: Herbicidal rating ORYSAT (ORYSAT (Rice, Tebonnet); rate 0.0313 kg/ha) | CYPIR herbicidal effect rating (CYPIR (Rice Flatsedge) [2]; 0.2500 kg/ha) | Herbicidal rating CYPIR (CYPIR (Rice Flatsedge) [5]; [15])
2.5: Herbicidal rating ORYSAT (ORYSAT (Rice, Tebonnet); rate 0.0156 kg/ha)
4.5: Herbicidal rating ZEAMX (ZEAMX (Corn, Field); rate 0.0156 kg/ha) | Herbicidal rating ZEAMX (ZEAMX (Corn, Field); rate 0.0313 kg/ha)
4.0: Herbicidal rating ORYSAT (ORYSAT (Rice, Tebonnet); rate 0.0625 kg/ha) | Herbicidal rating ORYSAT (ORYSAT (Rice, Tebonnet); rate 0.1250 kg/ha) | CYPIR herbicidal effect rating (CYPIR (Rice Flatsedge) [2]; 0.5000 kg/ha) | Herbicidal rating CYPIR (CYPIR (Rice Flatsedge) [5]; [16]) | Herbicidal rating SAGPY [7, 16]
5.0: Herbicidal rating SETVI (SETVI (Foxtail, Green); rate 0.0625 kg/ha) | Herbicidal rating SETVI (SETVI (Foxtail, Green); rate 0.1250 kg/ha) | Herbicidal rating ZEAMX (ZEAMX (Corn, Field); rate 0.0625 kg/ha) | Herbicidal rating ZEAMX (ZEAMX (Corn, Field); rate 0.1250 kg/ha)
